From ChEMBL document CHEMBL3817781, “Identifying Interactions that Determine Fragment Binding at Protein Hotspots” (J Med Chem, 2016)

Molecular target: T1, Pantothenate synthetase (Mycobacterium tuberculosis, UniProt P9WIL5)
T1 sequence (P9WIL5 whole entry): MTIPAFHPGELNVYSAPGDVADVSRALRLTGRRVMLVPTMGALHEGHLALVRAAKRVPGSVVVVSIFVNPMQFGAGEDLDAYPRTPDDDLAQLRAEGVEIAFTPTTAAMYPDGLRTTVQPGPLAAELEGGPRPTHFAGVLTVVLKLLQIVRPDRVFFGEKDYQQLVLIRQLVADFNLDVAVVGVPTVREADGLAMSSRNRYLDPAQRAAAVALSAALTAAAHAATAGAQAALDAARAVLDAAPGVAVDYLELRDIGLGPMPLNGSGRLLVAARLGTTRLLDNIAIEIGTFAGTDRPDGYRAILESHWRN
Assay: Inhibition of Mycobacterium tuberculosis pantothenate synthetase expressed in Escherichia coli

## COc1ccc2c(c1)cc(C(=O)NS(=O)(=O)Cc1ccc(C(F)(F)F)cc1)n2CC(=O)O
  IC50: 250 nM
